Assays:
[1] = system: c-Fos immunoreactivity in the dorsal medial habenula; experiment: cFos Staining; type: in vivo, C57/B16 mice; conditions: oral
Experimental: Methods: After dosing C57/B16 mice for various time courses their brains were prepared for immunohistochemistry. […] Brains are extracted and placed in 4% paraformaldehyde for 3 hours, changed into 20% sucrose/PBS solution to avoid freezing artifacts, and frozen with dry ice. Frozen brain sections are obtained with sliding microtome at 20 um and washed in PBS (2 times for 10 minutes each). Endogenous peroxidase enzyme is blocked with 0.3% H2O2 solution in water for 10 minutes. Sections are rinsed in PBS (3 times for 10 minutes each) and incubated in primary antibody against cFos (Santa Cruz SC-42) at a dilution of 1:10,000 at 4° C. overnight in PBS+0.3% triton and 1% bovine serum albumin. Sections are subsequently rinsed in PBS (3 times for 10 minutes each) and incubated in secondary antibody: goat against rabbit-biotinylated antibody, at a dilution of 1:200 for 1 hour at room temperature in PBS+0.3% triton and 1% bovine serum albumin. Sections are rinsed in PBS (3 times for 10 minutes each) and incubated in ABC mix in PBS; ABC Elite Kit from Vector (PK-1000) for 1 hour at room temperature. Next, the sections are rinsed in PBS (3 times for 10 minutes each) and then in 0.1 M sodium acetate (3 times for 10 minutes each). Reaction is visualized with standard diaminobenzydine procedures: 50 mL of 0.1M sodium acetate containing 20 mg ammonium chloride, 20 mg, diaminobenzydine, 80 mg glucose and 10 mL of glucose oxidase. React for 10 minutes then the reaction is stopped with PBS rinses (3 times for 10 minutes each). cFos cells are then counted.

human GPR139 receptor [2] = target: T1, human GPR139 receptor (Homo sapiens (Human), UniProt Q6DWJ6); experiment: Activation of Calcium Signaling of GPR139 In Vitro Assay; type: cell-based; conditions: stably transfected CHO-TRex cells, Calcium 5 dye, FLIPR Tetra;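 also: receptor expression induced with doxycycline, calcium fluorescence read continuously for one minute after compound addition, EC50 taken from a four-parameter logistic fit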
T1 sequence (Q6DWJ6 whole entry): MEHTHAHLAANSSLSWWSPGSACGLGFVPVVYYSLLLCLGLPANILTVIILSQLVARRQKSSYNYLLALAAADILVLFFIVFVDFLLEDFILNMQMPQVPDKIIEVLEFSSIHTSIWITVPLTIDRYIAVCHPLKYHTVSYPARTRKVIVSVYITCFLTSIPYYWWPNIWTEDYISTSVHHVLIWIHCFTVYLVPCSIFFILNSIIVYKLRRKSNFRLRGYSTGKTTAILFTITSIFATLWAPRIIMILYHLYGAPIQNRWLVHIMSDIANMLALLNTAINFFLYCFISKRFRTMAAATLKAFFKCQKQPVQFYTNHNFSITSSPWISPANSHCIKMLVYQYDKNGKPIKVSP

human GPR139 receptor [3] = target: T1, human GPR139 receptor; experiment: GPR139 Competition Binding; conditions: stably transfected CHO-TRex membranes, 1 nM 3H radioligand; read-out: GPR139 Inhibition (Ki (nM));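 also: receptor expression induced with doxycycline before membrane preparation, bound radioactivity counted by scintillation, Ki fitted with a four-parameter logistic model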

C[C@H](NC(=O)Cn1nnc2ccccc2c1=O)c1ccc(OC(F)(F)F)cc1 [Example 2, (S)-2-(4-oxobenzo[d][1,2,3]triazin-3(4H)-yl)-N-(1-(4-(trifluoromethoxy)phenyl)ethyl)acetamide]
cFos cell count, Mean ([1]; desensitization experiment, 0.1 mg/kg 1d): 1486
cFos cell count, Mean ([1]; desensitization experiment, 0.1 mg/kg 5d): 1928
cFos cell count, Mean ([1]; desensitization experiment, 0.1 mg/kg 10d): 1684
cFos cell count, Mean ([1]; dose response curve experiment, 0.01 mg/kg): 1376
cFos cell count, Mean ([1]; dose response curve experiment, 0.03 mg/kg): 986.3
cFos cell count, Mean ([1]; dose response curve experiment, 0.1 mg/kg): 1381
cFos cell count, Mean ([1]; dose response curve experiment, 0.3 mg/kg): 1408
cFos cell count, Mean ([1]; dose response curve experiment, 1 mg/kg): 1368
cFos cell count, Mean ([1]; time course experiment, 0.1 mg/kg 1 hr): 787.7
cFos cell count, Mean ([1]; time course experiment, 0.3 mg/kg 1 hr): 1343
cFos cell count, Mean ([1]; time course experiment, 0.3 mg/kg 2 hr): 1400
cFos cell count, Mean ([1]; time course experiment, 0.3 mg/kg 4 hr): 2170
cFos cell count, Mean ([1]; time course experiment, 3 mg/kg 1 hr): 2365

COc1cccc2nnn(CC(=O)N[C@@H](C)c3ccc(C)cc3)c(=O)c12 [Example 3, (S)-2-(5-methoxy-4-oxobenzo[d][1,2,3]triazin-3(4H)-yl)-N-(1-p-tolylethyl)acetamide]
cFos cell count, Mean ([1]; dose-response and time course experiment, 0.03 mg/kg 1 hr): 1628
cFos cell count, Mean ([1]; dose-response and time course experiment, 0.1 mg/kg 1 hr): 2243
cFos cell count, Mean ([1]; dose-response and time course experiment, 0.3 mg/kg 1 hr): 2458
cFos cell count, Mean ([1]; dose-response and time course experiment, 0.3 mg/kg 2 hr): 2777
cFos cell count, Mean ([1]; dose-response and time course experiment, 0.3 mg/kg 4 hr): 865
cFos cell count, Mean ([1]; dose-response and time course experiment, 3 mg/kg 1 hr): 2023

CC[C@H](NC(=O)Cn1nnc2ccccc2c1=O)c1ccc(OC(F)(F)F)cc1 [Example 86, (S)-2-(4-oxobenzo[d][1,2,3]triazin-3(4H)-yl)-N-(1-(4-(trifluoromethoxy)phenyl)propyl)acetamide]
EC50 (human GPR139 receptor [2]): 50 nM
Ki (human GPR139 receptor [3]): 183 nM

CC[C@H](NC(=O)Cn1nnc2ccccc2c1=O)c1ccc(C(F)(F)F)cc1 [Example 87, (S)-2-(4-oxobenzo[d][1,2,3]triazin-3 (4H)-yl)-N-(1-(4-(trifluoromethyl)phenyl)propyl)acetamide]
EC50 (human GPR139 receptor [2]): 31 nM
Ki (human GPR139 receptor [3]): 214 nM

From patent publication US9556130B2, “4-oxo-3,4-dihydro-1,2,3-benzotriazine modulators of GPR139” (Takeda Pharmaceutical Company Limited, priority 2014, dated 2017)
